SMILES strings stand for the structures.

The assay deals with T1, HIV-integrase (Human immunodeficiency virus type 1 group M subtype B, UniProt P12497).
T1 construct: Recombinant integrase (0.26 ng) was incubated with the beads
As to the kind of experiment: HIV-Integrase Inhibition Activity (SPA bead integration assay with P33 labeled target DNA). It counts as biochemical. To be noted: recombinant integrase, class symbols; read-out: in vitro activity. The method, boiled down: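 Biotinylated substrate DNA on streptavidin SPA beads loaded with recombinant integrase (90 min, 37° C), washed, then inhibitor plus 0.1 fmol P33-labeled target DNA added. Reaction stopped with 10 mM EDTA; integration measured as CPM by scintillation, giving IC50 ranks.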
For the compound `CN(C)C(=O)C(=O)N(C)C12CCC(CC1)Cn1c2nc(C(=O)NCc2ccc(F)c(Cl)c2)c(O)c1=O` [Example 158, N-(2-((3-Chloro-4-fluorobenzyl)carbamoyl)-3-hydroxy-4-oxo-6,7,8,9-tetrahydro-7,10-ethanopyrimido[1,2-a]azepin-10(4H)-yl)-N,N′,N′-trimethylethanediamide], the IC50 was < 10 nM.

Take `Cc1cc(CNC(=O)c2nc3n(c(=O)c2O)CC2CCC3(NC(=O)[C@H]3CCN(S(C)(=O)=O)C3)CC2)ccc1F` [Example 283, 7,10-Ethanopyrimido[1,2-a]azepine-2-carboxamide, N-[(4-fluoro-3-methylphenyl)methyl]-4,6,7,8,9,10-hexahydro-3-hydroxy-10-[[[(3S)-1-(methylsulfonyl)-3-pyrrolidinyl]carbonyl]amino]-4-oxo-]: the IC50 was < 10 nM.

`CN(C)C(=O)C(=O)NC12CCC(CC1)Cn1c2nc(C(=O)NCc2ccncc2)c(O)c1=O` [Example 365]: the IC50 is > 100 nM.

Consider `CN(C)C(=O)C(=O)NC12CCC(CC1)Cn1c2nc(C(=O)NCc2ccc(F)cc2S(C)(=O)=O)c(O)c1=O` [Example 117, N′-(2-((4-Fluoro-2-(methylsulfonyl)benzyl)carbamoyl)-3-hydroxy-4-oxo-6,7,8,9-tetrahydro-7,10-ethanopyrimido[1,2-a]azepin-10(4H)-yl)-N,N-dimethylethanediamide], for which the IC50 was in the range of 10 to 100 nM.

Take `Cn1cnc(S(=O)(=O)N2CCN(C(=O)C(=O)NC34CCC(CC3)Cn3c4nc(C(=O)NCc4ccc(F)cc4)c(O)c3=O)CC2)c1` [Example 148, N-(4-Fluorobenzyl)-3-hydroxy-10-(((4-((1-methyl-1H-imidazol-4-yl)sulfonyl)-1-piperazinyl)(oxo)acetyl)amino)-4-oxo-4,6,7,8,9,10-hexahydro-7,10-ethanopyrimido[1,2-a]azepine-2-carboxamide]: the IC50 was < 10 nM.

For `CN(C)C(=O)NC12CCC(CC1)Cn1c2nc(C(=O)NCc2ccc(F)cc2)c(O)c1=O` [Example 27, 10-((Dimethylcarbamoyl)amino)-N-(4-fluorobenzyl)-3-hydroxy-4-oxo-4,6,7,8,9,10-hexahydro-7,10-ethanopyrimido[1,2-a]azepine-2-carboxamide], the IC50 is 10 to 100 nM.

`CO[C@@H]1C[C@@H](C(=O)NC23CCC(CC2)Cn2c3nc(C(=O)NCc3ccc(F)cc3)c(O)c2=O)N(S(C)(=O)=O)C1` [Example 274, 7,10-Ethanopyrimido[1,2-a]azepine-2-carboxamide, N-[(4-fluorophenyl)methyl]-4,6,7,8,9,10-hexahydro-3-hydroxy-10-[[[(2S,4R)-4-methoxy-1-(methylsulfonyl)-2-pyrrolidinyl]carbonyl]amino]-4-oxo-]: the IC50 was < 10 nM.

Take `CN(C)C(=O)C(=O)NC12CCC(CCn3c1nc(C(=O)NCc1ccc(F)cc1)c(O)c3=O)C2` (single isomer, unassigned) [Example 413, Ethanediamide, N′-[2-[[[(4-fluorophenyl)methyl]amino]carbonyl]-7,8,9,10-tetrahydro-3-hydroxy-4-oxo-8,11-methano-4H-pyrimido[1,2-a]azocin-11(6H)-yl]-N,N-dimethyl-]: the IC50 is < 10 nM.

On to `Cc1ncn(C)c1C(=O)NC12CCC(CC1)Cn1c2nc(C(=O)NCc2ccc(F)cc2)c(O)c1=O` [Example 243, 7,10-Ethanopyrimido[1,2-a]azepine-2-carboxamide, 10-[[(1,4-dimethyl-1H-imidazol-5-yl)carbonyl]amino]-N-[(4-fluorophenyl)methyl]-4,6,7,8,9,10-hexahydro-3-hydroxy-4-oxo-], for which the IC50 is 10 to 100 nM.

For the compound `CN(C)C(=O)C(=O)NC12CCC(CC1)Cn1c2nc(C(=O)NCCc2ccccc2Cl)c(O)c1=O` [Example 344], the IC50 is 10 to 100 nM.

In the case of `CN(C)C(=O)C(=O)NC12CCC(CC1)Cn1c2nc(C(=O)NCc2ccc(F)cc2Cl)c(O)c1=O` [Example 118, N′-(2-((2-Chloro-4-fluorobenzyl)carbamoyl)-3-hydroxy-4-oxo-6,7,8,9-tetrahydro-7,10-ethanopyrimido[1,2-a]azepin-10(4H)-yl)-N,N-dimethylethanediamide], the IC50 was < 10 nM.

Consider `CN(C)C(=O)C(=O)NC12CCC(CC1)Cn1c2nc(C(=O)NCCc2ccc(O)cc2)c(O)c1=O` [Example 347], for which the IC50 was > 100 nM.

On to `Cc1cc(CNC(=O)c2nc3n(c(=O)c2O)CC2CCC3(NC(=O)C(=O)N(C)C)CC2)nn1C(C)(C)C` [Example 236, Ethanediamide, N′-[2-[[[[1-(1,1-dimethylethyl)-5-methyl-1H-pyrazol-3-yl]methyl]amino]carbonyl]-6,7,8,9-tetrahydro-3-hydroxy-4-oxo-7,10-ethanopyrimido[1,2-a]azepin-10(4H)-yl]-N,N-dimethyl-], for which the IC50 is 10 to 100 nM.

In the case of `Cn1cc(C(=O)NC23CCC(CC2)Cn2c3nc(C(=O)NCc3ccc(F)cc3)c(O)c2=O)cn1` [Example 246, 7,10-Ethanopyrimido[1,2-a]azepine-2-carboxamide, N-[(4-fluorophenyl)methyl]-4,6,7,8,9,10-hexahydro-3-hydroxy-10-[[(1-methyl-1H-pyrazol-4-yl)carbonyl]amino]-4-oxo-], the IC50 was < 10 nM.

In the case of `O=C(NC12CCC(CC1)Cn1c2nc(C(=O)NCc2ccc(F)cc2)c(O)c1=O)c1ccccc1` [Example 36, N-(4-Fluorobenzyl)-3-hydroxy-4-oxo-10-((phenylcarbonyl)amino)-4,6,7,8,9,10-hexahydro-7,10-ethanopyrimido[1,2-a]azepine-2-carboxamide], the IC50 is < 10 nM.

Take `Cc1cc(CNC(=O)c2nc3n(c(=O)c2O)CC2CCC3(N(C)C(=O)C(=O)N(C)Cc3cn(C)nc3C)CC2)ccc1F` [Example 170, N-((1,3-Dimethyl-1H-pyrazol-4-yl)methyl)-N′-(2-((4-fluoro-3-methylbenzyl)carbamoyl)-3-hydroxy-4-oxo-6,7,8,9-tetrahydro-7,10-ethanopyrimido[1,2-a]azepin-10(4H)-yl)-N,N′-dimethylethanediamide]: the IC50 is < 10 nM.

As for `CN(C)C(=O)C(=O)NC12CCC(CC1)Cn1c2nc(C(=O)NCc2ccc(S(N)(=O)=O)cc2)c(O)c1=O` [Example 379], the IC50 was < 10 nM.

In the case of `COCCN1CCN(C(=O)C(=O)NC23CCC(CC2)Cn2c3nc(C(=O)NCc3ccc(F)cc3)c(O)c2=O)CC1` [Example 73, N-(4-Fluorobenzyl)-3-hydroxy-10-(((4-(2-methoxyethyl)-1-piperazinyl)(oxo)acetyl)amino)-4-oxo-4,6,7,8,9,10-hexahydro-7,10-ethanopyrimido[1,2-a]azepine-2-carboxamide], the IC50 was < 10 nM.

Regarding `O=C(N[C@]12CC[C@H](CCn3c1nc(C(=O)NCc1ccc(F)cc1)c(O)c3=O)C2)C(=O)N1CC[C@@H](F)C1` [Example 417, 8,1,1-Methano-4H-pyrimido[1,2-a]azocine-2-carboxamide, N-[(4-fluorophenyl)methyl]-11-[[2-[(3R)-3-fluoro-1-pyrrolidinyl]-1,2-dioxoethyl]amino]-6,7,8,9,10,11-hexahydro-3-hydroxy-4-oxo-, (8R,11S)—], the IC50 is < 10 nM.

As to `CN(C)C(=O)C(=O)NC12CCC(CC1)Cn1c2nc(C(=O)NCc2ccc(Cl)c(Cl)c2)c(O)c1=O` [Example 372], the IC50 was < 10 nM.

Regarding `O=C(NC12CCC(CCn3c1nc(C(=O)NCc1ccc(F)cc1)c(O)c3=O)C2)C(=O)N1CC(F)(F)C1` (stereo not shown) [Example 202, 8,1,1-Methano-4H-pyrimido[1,2-a]azocine-2-carboxamide, 1′-[[2-(3,3-difluoro-1-azetidinyl)-1,2-dioxoethyl]amino]-N-[(4-fluorophenyl)methyl]-6,7,8,9,10,11-hexahydro-3-hydroxy-4-oxo-], the IC50 was < 10 nM.

`O=C1C[C@@H](C(=O)NC23CCC(CC2)Cn2c3nc(C(=O)NCc3ccc(F)cc3)c(O)c2=O)N1` [Example 264, 7,10-Ethanopyrimido[1,2-a]azepine-2-carboxamide, N-[(4-fluorophenyl)methyl]-4,6,7,8,9,10-hexahydro-3-hydroxy-4-oxo-10-[[[(2S)-4-oxo-2-azetidinyl]carbonyl]amino]-]: the IC50 is < 10 nM.

On to `COc1cccc(CNC(=O)c2nc3n(c(=O)c2O)CC2CCC3(NC(=O)C(=O)N(C)C)CC2)c1` [Example 373], for which the IC50 was < 10 nM.

Consider `COC(=O)NC12CCC(CC1)Cn1c2nc(C(=O)NCc2ccc(F)cc2)c(O)c1=O` [Example 25, Methyl (2-((4-fluorobenzyl)carbamoyl)-3-hydroxy-4-oxo-6,7,8,9-tetrahydro-7,10-ethanopyrimido[1,2-a]azepin-10(4H)-yl)carbamate], for which the IC50 was < 10 nM.

Turning to `CC(=O)N1CCCC[C@H]1C(=O)NC12CCC(CC1)Cn1c2nc(C(=O)NCc2ccc(F)cc2)c(O)c1=O` [Example 265, 7,10-Ethanopyrimido[1,2-a]azepine-2-carboxamide, 10-[[[(2S)-1-acetyl-2-piperidinyl]carbonyl]amino]-N-[(4-fluorophenyl)methyl]-4,6,7,8,9,10-hexahydro-3-hydroxy-4-oxo-], the IC50 is < 10 nM.

With `O=C(NC12CCC(CC1)Cn1c2nc(C(=O)NCc2ccc(F)cc2)c(O)c1=O)C(=O)N1CCCC1` [Example 58, N-(4-Fluorobenzyl)-3-hydroxy-4-oxo-10-((oxo(1-pyrrolidinyl)acetyl)amino)-4,6,7,8,9,10-hexahydro-7,10-ethanopyrimido[1,2-a]azepine-2-carboxamide], the IC50 was < 10 nM.

For the compound `Cc1cc(CNC(=O)c2nc3n(c(=O)c2O)CC2CCC3(N(C)C(=O)c3cccnc3)CC2)ccc1F` [Example 319, 7,10-Ethanopyrimido[1,2-a]azepine-2-carboxamide, N-[(4-fluoro-3-methylphenyl)methyl]-4,6,7,8,9,10-hexahydro-3-hydroxy-10-[methyl(3-pyridinylcarbonyl)amino]-4-oxo-], the IC50 is < 10 nM.

Take `CC(C)S(=O)(=O)N1CCCC1C(=O)NC12CCC(CC1)Cn1c2nc(C(=O)NCc2ccc(F)cc2)c(O)c1=O` (stereo not shown) [Example 402]: the IC50 is < 10 nM.

Source of the values: patent US8129398B2 (priority 2008, dated 2012).
